From article PMC10458253, “Unraveling the In Vitro Toxicity Profile of Psychedelic 2C Phenethylamines and Their N-Benzylphenethylamine (NBOMe) Analogues” (Pharmaceuticals, 2023)

Tests used:
[1] = CHI on Immobilized Artificial Membrane (IAM) HPLC, Kpcell; format: physicochemical; settings: partition between internal and external cellular media; estimated from experimental CHI(IAM)
Description: The CHI on IAM (CHI (IAM)) values were determined from the experimental tR obtained on the HPLC system with an IAM.PC.DD2 column (100 × 4.6 mm, 10 µm, Regis Technologies, Inc., Morton Grove, IL, USA). […] The Log Kpcell (partition between internal and external cellular media) values were estimated from the drugs’ experimental CHI IAM values using Equations (2) and (3) described elsewhere. Log kIAM = 0.046 CHI(IAM) + 0.42(2) Log Kpcell = 1.1 Log kIAM(3)

[2] = test system: differentiated SH-SY5Y cells; assay: Intracellular total glutathione (DTNB-GSH recycling assay); format: cell-based; settings: 24 h
Description: Total GSH was quantified through the DTNB-GSH recycling assay. Briefly, GSH is oxidized by 5,5′-dithiobis (2-nitrobenzoic acid) (DTNB) producing 5-thio-2-nitrobenzoic acid (TNB) and a glutathione adduct of GSH (GS-TNB). In the presence of NADPH, GS-TNB is reduced by glutathione reductase to 2GSH (recycled). The GSH concentration in the samples is thus proportional to TNB formation, which is measurable at 415 nm.
Intracellular total glutathione (GSH) was measured through the DTNB-GSH recycling assay. […]
The acidic samples and standards (GSH standards prepared in 5% HClO4) were neutralized with ice-cold 0.76 M KHCO3 (1:1) and centrifuged (13,000× g, 10 min at 4 °C). Subsequently, 100 µL of the supernatants were transferred to a 96-well plate, followed by the addition of 65 µL of an extemporaneous reagent solution (3.96 mM DTNB and 0.68 mM NADPH prepared in a 7.5 pH phosphate buffer: 71.5 mM Na2HPO4, 71.5 mM NaH2PO4, and 0.63 mM EDTA) and the plates were incubated for 15 min in a multi-well plate reader (PowerWaveX BioTek Instruments, Winooski, VT, USA) at 30 °C. At the end of the incubation period, 40 µL of a 10 U/mL glutathione reductase (prepared in phosphate buffer) solution was added and the absorbance was then measured, for 3 min, at 415 nm, in kinetic mode to follow the TNB formation. […]

[3] = test system: differentiated SH-SY5Y cells; assay: Intracellular ATP (luciferin-luciferase bioluminescence assay); format: cell-based; settings: 24 h, 500 μM
Description: Intracellular ATP levels were determined, as previously described, through a bioluminescence reaction with luciferase, which catalyzes the formation of light from ATP and luciferin.
Intracellular adenosine triphosphate (ATP) was quantified through the bioluminescent D-luciferin-luciferase assay. The samples used for the intracellular ATP quantification were prepared as described for the “Intracellular Total Glutathione Quantification” assay. The acidic samples and standards (ATP standards prepared in 5% HClO4) were neutralized with ice-cold 0.76 M KHCO3 (1:1) and centrifuged (13,000× g, 10 min at 4 °C). Afterwards, 75 µL of the supernatants were transferred to a white opaque 96-well plate, followed by the addition of 75 µL of luciferin-luciferase solution (0.15 mM luciferin and 3 × 10^6 light unit’s luciferase/mL prepared in a 7.6 pH Tris-Glycine buffer solution: 1 mM Trizma; 10 mM MgSO4; 50 mM glycine; 0.55 mM EDTA and 1% BSA), protected from light. The samples’ bioluminescence (560 nm) was immediately measured in a multi-well plate reader (PowerWaveX BioTek Instruments, Winooski, VT, USA). The ATP content in the samples was normalized to the protein content (as previously described in “Intracellular Reduced Glutathione Quantification”) and the results were expressed as a percentage of control cells. At least four independent experiments were performed, in duplicate.

[4] = PAMPA-BBB permeability assay
Source text: In the present study we used a Parallel Artificial Membrane Permeation Assay (PAMPA) with a membrane mimicking the BBB phospholipidic composition (PAMPA-BBB) to evaluate and predict passive, transcellular permeability of the mescaline-NBOMe, 25B-NBOMe and 25N-NBOMe drugs.
The PiON inc database software was used for data analysis.

[5] = test system: differentiated SH-SY5Y cells; assay: Mitochondrial membrane potential (JC-1 dye); format: cell-based; settings: 24 h, 0–500 µM, vs control
Description: Mitochondrial transmembrane potential (Δѱm) was determined using the JC-1 dye, which can selectively enter the mitochondria and reversibly change the dye’s fluorescent properties depending on the Δѱm. At high Δѱm conditions—representative of healthy cells—JC-1 forms J-aggregates generating red fluorescence. At low Δѱm conditions—representative of unhealthy or apoptotic cells—JC-1 is predominantly a monomer generating green fluorescence.
The mitochondrial membrane potential was evaluated by using the JC-1 probe. SH-SY5Y cells were seeded and differentiated in 48-well plates and, 6 days after seeding, the cells were exposed to the six drugs (0–500 µM) for 24 h, at 37 °C, in a 5% CO2–95% air atmosphere. Subsequently, the medium was removed, and the cells were incubated with 20 µM JC-1 for 30 min, protected from light, at 37 °C, in a 5% CO2–95% air atmosphere. At the end of the incubation period, the cells were centrifuged (300× g, 5 min at room temperature) and washed (warm HBSS with calcium and magnesium) twice. The fluorescence was then measured in a multi-well plate reader: at 535 nm excitation and 595 nm emission wavelengths for J-aggregates; and at 485 nm excitation and 535 nm emission wavelengths for JC-1 monomers (PowerWaveX BioTek Instruments, USA). […] The results were calculated as red/green fluorescence intensity ratios and expressed as percentages of control cells. […]

COc1cc(CCN)c(OC)cc1Br [2C-B, 4-Bromo-2,5-dimethoxy-β-phenethylamine]
Kpcell [1]: 3.08 | total GSH intracellular levels ([2]; 250 μM): no significant alterations

COc1cc([N+](=O)[O-])c(OC)cc1CCN [2C-N, 2,5-dimethoxy-4-nitrophenethylamine]
Kpcell [1]: 0.94 | ATP intracellular levels [3]: about 60 % of control cells

COc1cc(CCNCc2ccccc2OC)c(OC)cc1Br [25B-NBOMe, 4-Bromo-2,5-dimethoxy-N-(2-methoxybenzyl)-β-phenethylamine]
Kpcell [1]: 9.08 | −Log Pe ± SD [4]: 4.4 ± 0.36 | JC-1 red/green ratio (mitochondrial membrane potential) [5]: the most operative drug in inducing mitochondrial membrane depolarization | total GSH intracellular levels ([2]; 10 μM): drastically reduced the total GSH levels | ATP intracellular levels [3]: completely depleted intracellular ATP levels

COc1cc([N+](=O)[O-])c(OC)cc1CCNCc1ccccc1OC [25N-NBOMe, 4-Nitro-2-dimethoxy-N-(2-methoxybenzyl)-β-phenethylamine]
Kpcell [1]: 5.05 | −Log Pe ± SD [4]: 4.6 ± 0.34

COc1ccccc1CNCCc1cc(OC)c(OC)c(OC)c1 [Mescaline-NBOMe, 3,4,5-Trimethoxy-N-(2-methoxybenzyl)-β-phenethylamine]
Kpcell [1]: 2.71 | −Log Pe ± SD [4]: 4.7 ± 0.49
